Active and inactive are the calls of the source.
Key:
[1] = control 3'UTR Renilla luciferase suppression, dose response, counter-screen for Shn3 inhibitor project, cell-based, Clone20-Shn3RL, cherry-picked (AID 624133); type: functional
[2] = inhibitors of intracellular T. cruzi replication, confirmation, NIH3T3 host cells, beta-gal luminescence (AID 2044); type: functional, cell-based;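 also: intracellular parasites grown in NIH/3T3 mouse fibroblasts as host cells; luminescent beta-galactosidase reporter signal from transgenic T. cruzi replicating inside host cells; inhibitors lower the luminescence signal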
[3] = CEM21 lymphoblast cell cytotoxicity, dose response, cytotoxicity control for viral fusion inhibitor project, CellTiter-Glo luminescence, cherry-picked (AID 652042); type: functional, cell-based;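 also: potency for signal decrease meaning cytotoxicity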
[4] = ZM109 Env clade C HIV-1 fusion inhibitors, dose response, HeLa effector, CEM target cells, luciferase, cherry-pick (AID 652058); type: functional, cell-based
[5] = cytotoxicity in MIN6 insulinoma cells, dose response, cytotoxicity control, cell-based, mouse insulinoma (AID 2122); type: functional;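 also: confirmatory high-throughput counterscreen run to flag cytotoxic compounds; mouse MIN-6 beta cells carrying an insulin promoter eGFP reporter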
[6] = HepG2 cell cytotoxicity, dose response, cytotoxicity control for Shn3 inhibitor project, CellTiter-Glo, cherry-picked (AID 624134); type: functional, cell-based
[7] = cytotoxicity toward NIH3T3 fibroblasts, dose response, counter-screen, cell-based, ATP luminescence, mouse fibroblasts (AID 2010); type: functional;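 also: cells exposed to compound for about 90 hours before reading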
[8] = inhibitors of HIV Env-driven cell fusion, dose response, cherry-pick (AID 652057); type: functional, cell-based
[9] = Shn3 3'UTR reporter inhibitors, dose response, cell-based, Clone20 osteoblasts, firefly luciferase, cherry-picked (AID 624132); type: functional;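 also: firefly luciferase luminescence from reporter carrying the Shn3 3'UTR in osteoblasts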
[10] = off-target signal loss in HeLa-CEM21 co-culture – HeLa F-luc CTL cells, cherry-picked, counter-screen for HIV-1 Env fusion inhibitor project, dose response (AID 652040); type: functional, cell-based;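 also: potency for signal decrease marking cytotoxic or nonspecific inhibition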
[11] = insulin promoter down-regulators in MIN6 cells, imaging, high-content screening, mouse beta cells (AID 1628); type: functional
CAAX prenyl protease 1 = CAAX prenyl protease 1 (Saccharomyces cerevisiae S288c, UniProt P47154); experiment: Ste24 protease inhibitors, dose response, biochemical, S. cerevisiae, plate reader, cherry-pick (AID 488815)
SUMO E1/E2 = SUMO E1/E2 (Homo sapiens, UniProt P63279+Q9UBE0+Q9UBT2); experiment: SAR analysis of SUMOylation using HTRF in an in-Vitro dose response assay. [Related pubchem assays (depositor defined):AID2006, AID2011, AID2018, AID2069, AID2658]; type: functional
[12] = biological target: T1, Voltage-gated N-type calcium channel alpha-1B subunit/Amyloid beta A4 precursor protein-binding family A member 1 (Homo sapiens, UniProt Q00975+Q02410); experiment: disruptors of Mint-PDZ/N-type channel peptide interaction – biochemical, HTRF, SAR follow-up (AID 2489); type: functional
T1 sequence (Q00975 whole entry): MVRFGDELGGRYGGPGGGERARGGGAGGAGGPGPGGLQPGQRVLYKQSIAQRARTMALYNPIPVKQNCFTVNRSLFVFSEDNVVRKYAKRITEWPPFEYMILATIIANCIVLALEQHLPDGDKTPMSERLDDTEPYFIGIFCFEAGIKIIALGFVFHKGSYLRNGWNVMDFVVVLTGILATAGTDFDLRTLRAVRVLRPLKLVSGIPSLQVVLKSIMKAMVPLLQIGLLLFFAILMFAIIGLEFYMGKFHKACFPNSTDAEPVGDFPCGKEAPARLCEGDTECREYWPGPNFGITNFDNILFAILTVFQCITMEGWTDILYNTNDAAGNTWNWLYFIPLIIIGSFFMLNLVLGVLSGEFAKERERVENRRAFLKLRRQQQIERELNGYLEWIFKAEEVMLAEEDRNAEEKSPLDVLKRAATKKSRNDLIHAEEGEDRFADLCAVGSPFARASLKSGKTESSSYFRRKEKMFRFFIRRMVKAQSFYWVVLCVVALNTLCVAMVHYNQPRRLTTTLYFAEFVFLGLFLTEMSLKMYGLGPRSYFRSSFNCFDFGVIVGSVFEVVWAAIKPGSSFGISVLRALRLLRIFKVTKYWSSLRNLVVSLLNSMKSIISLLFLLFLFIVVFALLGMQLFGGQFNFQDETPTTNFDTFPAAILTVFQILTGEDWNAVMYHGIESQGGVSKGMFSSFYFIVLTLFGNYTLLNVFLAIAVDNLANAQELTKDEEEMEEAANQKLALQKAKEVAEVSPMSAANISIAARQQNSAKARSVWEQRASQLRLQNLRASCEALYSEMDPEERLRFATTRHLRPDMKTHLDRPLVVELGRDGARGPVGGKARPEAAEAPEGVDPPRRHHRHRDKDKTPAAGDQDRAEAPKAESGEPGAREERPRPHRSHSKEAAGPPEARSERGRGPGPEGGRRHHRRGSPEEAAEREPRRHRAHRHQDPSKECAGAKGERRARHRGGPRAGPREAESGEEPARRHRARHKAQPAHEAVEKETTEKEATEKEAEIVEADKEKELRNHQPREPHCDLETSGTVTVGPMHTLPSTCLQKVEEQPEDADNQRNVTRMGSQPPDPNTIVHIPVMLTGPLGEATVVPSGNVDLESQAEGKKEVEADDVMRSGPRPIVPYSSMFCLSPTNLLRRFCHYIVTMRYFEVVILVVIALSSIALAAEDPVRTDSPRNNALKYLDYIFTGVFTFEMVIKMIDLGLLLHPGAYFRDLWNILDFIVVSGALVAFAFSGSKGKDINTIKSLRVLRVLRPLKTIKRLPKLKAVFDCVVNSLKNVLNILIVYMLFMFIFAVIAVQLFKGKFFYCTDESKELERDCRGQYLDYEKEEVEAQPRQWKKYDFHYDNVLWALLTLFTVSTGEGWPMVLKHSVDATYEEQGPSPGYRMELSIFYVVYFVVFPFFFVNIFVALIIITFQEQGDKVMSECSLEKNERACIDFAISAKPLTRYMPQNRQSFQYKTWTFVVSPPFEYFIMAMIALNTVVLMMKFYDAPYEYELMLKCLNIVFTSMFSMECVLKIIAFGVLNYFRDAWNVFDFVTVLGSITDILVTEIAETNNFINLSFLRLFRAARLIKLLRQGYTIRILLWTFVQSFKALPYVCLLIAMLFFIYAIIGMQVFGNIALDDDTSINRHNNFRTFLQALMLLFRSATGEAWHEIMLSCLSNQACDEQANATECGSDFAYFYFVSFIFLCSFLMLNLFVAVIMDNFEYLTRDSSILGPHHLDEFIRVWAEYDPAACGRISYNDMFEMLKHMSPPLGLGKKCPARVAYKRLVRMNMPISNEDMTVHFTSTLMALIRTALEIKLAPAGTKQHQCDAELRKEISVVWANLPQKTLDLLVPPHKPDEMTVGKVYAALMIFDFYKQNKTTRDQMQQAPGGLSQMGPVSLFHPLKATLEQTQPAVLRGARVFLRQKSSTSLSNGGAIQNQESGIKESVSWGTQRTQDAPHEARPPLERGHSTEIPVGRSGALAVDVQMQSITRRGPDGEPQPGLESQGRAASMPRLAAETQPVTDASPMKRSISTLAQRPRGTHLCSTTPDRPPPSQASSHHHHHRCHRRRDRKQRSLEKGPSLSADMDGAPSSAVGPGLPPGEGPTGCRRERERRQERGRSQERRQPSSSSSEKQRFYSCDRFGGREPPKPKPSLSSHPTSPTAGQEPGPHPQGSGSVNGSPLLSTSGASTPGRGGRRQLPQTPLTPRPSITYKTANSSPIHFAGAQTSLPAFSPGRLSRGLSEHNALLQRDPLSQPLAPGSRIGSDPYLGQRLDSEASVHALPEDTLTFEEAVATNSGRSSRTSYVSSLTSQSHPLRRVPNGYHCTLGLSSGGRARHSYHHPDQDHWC
T1 sequence (Q02410 whole entry): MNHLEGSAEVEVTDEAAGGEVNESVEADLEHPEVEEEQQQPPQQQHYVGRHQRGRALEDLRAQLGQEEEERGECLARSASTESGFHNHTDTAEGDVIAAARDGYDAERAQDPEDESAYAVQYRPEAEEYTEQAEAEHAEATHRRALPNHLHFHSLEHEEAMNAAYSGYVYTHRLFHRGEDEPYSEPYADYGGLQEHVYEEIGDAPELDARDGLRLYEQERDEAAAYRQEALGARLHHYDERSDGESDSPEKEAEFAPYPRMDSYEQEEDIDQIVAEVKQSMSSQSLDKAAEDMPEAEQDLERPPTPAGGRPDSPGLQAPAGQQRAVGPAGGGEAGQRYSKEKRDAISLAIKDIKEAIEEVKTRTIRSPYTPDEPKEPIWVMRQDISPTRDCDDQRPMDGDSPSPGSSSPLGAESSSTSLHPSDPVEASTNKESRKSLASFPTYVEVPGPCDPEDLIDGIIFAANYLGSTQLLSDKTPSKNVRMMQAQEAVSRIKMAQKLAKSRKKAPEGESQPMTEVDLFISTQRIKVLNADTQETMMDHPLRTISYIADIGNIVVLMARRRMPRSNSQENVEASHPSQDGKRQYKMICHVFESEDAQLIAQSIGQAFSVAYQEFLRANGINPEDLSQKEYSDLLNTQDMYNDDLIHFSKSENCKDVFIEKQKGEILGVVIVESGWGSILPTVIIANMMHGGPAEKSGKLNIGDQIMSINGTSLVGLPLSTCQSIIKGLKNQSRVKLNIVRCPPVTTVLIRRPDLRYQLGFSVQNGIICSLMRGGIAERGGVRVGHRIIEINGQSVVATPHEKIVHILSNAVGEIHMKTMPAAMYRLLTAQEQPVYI

[13] = biological target: T1, Voltage-gated N-type calcium channel alpha-1B subunit/Amyloid beta A4 precursor protein-binding family A member 1; experiment: disruptors of Mint-PDZ/N-type channel peptide interaction – biochemical, HTRF, set 2, SAR follow-up (AID 434980); type: functional
[14] = biological target: Delta-type opioid receptor (Homo sapiens, UniProt P41143); experiment: Counterscreen for agonists of heterodimerization of the mu 1 (OPRM1) and delta 1 (OPRD1) opioid receptors: Luminescence-based cell-based high throughput dose response assay to identify agonists of OPRD1 homodimerization. [Related pubchem assays (depositor defined):AID504326, AID504355, AID504692, AID504904, AID504905]; type: functional
Chain of Delta-type opioid receptor (P41143 whole entry): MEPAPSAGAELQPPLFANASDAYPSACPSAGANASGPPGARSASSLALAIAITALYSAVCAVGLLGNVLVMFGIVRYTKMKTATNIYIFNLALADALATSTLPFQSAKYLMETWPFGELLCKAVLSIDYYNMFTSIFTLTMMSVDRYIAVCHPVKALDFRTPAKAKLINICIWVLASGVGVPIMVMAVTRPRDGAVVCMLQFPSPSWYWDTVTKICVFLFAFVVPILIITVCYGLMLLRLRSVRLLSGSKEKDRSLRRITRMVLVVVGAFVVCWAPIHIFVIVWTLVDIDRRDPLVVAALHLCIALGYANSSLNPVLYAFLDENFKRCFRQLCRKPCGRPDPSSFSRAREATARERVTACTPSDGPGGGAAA

Mu-type opioid receptor = Mu-type opioid receptor (Homo sapiens, UniProt P35372); experiment: Counterscreen for agonists of heterodimerization of the mu 1 (OPRM1) and delta 1 (OPRD1) opioid receptors: Luminescence-based cell-based high throughput dose response assay to identify agonists of OPRM1 homodimerization.; type: functional;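 also: U2OS cells expressing OPRM1 and beta-arrestin as split beta-galactosidase partners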
Chain of Mu-type opioid receptor (P35372 whole entry): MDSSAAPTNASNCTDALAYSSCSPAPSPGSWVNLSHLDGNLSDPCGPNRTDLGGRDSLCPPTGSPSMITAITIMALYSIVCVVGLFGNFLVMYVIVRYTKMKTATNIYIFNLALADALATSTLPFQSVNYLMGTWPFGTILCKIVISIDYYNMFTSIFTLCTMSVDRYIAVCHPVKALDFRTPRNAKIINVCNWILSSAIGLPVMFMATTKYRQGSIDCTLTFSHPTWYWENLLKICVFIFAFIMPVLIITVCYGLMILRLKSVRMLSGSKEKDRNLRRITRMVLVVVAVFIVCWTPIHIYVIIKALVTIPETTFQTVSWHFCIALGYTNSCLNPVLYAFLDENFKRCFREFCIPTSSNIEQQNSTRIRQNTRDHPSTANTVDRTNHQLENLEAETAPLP

[15] = biological target: 5-hydroxytryptamine receptor 5A (Homo sapiens, UniProt P47898); experiment: Counterscreen for agonists of OPRM1-OPRD1 heterodimerization: luminescence-based cell-based high throughput dose response assay to identify agonists of 5-hydroxytryptamine (serotonin) 5A receptor (HTR5A). [Related pubchem assays (depositor defined):AID504326, AID504355, AID504692, AID504904, AID504905]; type: functional
Chain of 5-hydroxytryptamine receptor 5A (P47898 whole entry): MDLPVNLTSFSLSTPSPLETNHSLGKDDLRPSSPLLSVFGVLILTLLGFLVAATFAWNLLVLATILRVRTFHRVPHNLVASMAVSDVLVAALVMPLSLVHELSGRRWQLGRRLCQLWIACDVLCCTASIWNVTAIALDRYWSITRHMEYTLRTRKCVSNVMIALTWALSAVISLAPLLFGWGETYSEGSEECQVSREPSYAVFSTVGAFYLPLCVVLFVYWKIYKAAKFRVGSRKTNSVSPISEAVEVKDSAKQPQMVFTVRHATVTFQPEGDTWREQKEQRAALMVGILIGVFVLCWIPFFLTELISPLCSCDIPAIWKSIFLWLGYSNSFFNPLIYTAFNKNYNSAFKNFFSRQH

[16] = growth suppression of PTEN-null colon cells, dose response, cell-based, HCT116 PTEN knockout (AID 1047); type: functional;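 also: HCT116 colon tumor cells with PTEN knocked out; cells exposed to compound for 60 hours before readout; potency for loss of cell viability measured by luminescence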
SUMO-activating enzyme = SUMO-activating enzyme (Homo sapiens, UniProt Q9UBT2); experiment: SUMOylation inhibitor hit validation, confirmation, SUMOylation inhibitor project, biochemical, AlphaScreen (AID 2018); type: functional
[17] = biological target: T2, Short transient receptor potential channel 4 (Mus musculus, UniProt Q9QUQ5); experiment: mouse TRPC4 channel activators, dose response, cell-based, HEK293 TRPC4/mu-opioid, Fluo-4 calcium (AID 434937); type: functional
T2 sequence (Q9QUQ5 whole entry): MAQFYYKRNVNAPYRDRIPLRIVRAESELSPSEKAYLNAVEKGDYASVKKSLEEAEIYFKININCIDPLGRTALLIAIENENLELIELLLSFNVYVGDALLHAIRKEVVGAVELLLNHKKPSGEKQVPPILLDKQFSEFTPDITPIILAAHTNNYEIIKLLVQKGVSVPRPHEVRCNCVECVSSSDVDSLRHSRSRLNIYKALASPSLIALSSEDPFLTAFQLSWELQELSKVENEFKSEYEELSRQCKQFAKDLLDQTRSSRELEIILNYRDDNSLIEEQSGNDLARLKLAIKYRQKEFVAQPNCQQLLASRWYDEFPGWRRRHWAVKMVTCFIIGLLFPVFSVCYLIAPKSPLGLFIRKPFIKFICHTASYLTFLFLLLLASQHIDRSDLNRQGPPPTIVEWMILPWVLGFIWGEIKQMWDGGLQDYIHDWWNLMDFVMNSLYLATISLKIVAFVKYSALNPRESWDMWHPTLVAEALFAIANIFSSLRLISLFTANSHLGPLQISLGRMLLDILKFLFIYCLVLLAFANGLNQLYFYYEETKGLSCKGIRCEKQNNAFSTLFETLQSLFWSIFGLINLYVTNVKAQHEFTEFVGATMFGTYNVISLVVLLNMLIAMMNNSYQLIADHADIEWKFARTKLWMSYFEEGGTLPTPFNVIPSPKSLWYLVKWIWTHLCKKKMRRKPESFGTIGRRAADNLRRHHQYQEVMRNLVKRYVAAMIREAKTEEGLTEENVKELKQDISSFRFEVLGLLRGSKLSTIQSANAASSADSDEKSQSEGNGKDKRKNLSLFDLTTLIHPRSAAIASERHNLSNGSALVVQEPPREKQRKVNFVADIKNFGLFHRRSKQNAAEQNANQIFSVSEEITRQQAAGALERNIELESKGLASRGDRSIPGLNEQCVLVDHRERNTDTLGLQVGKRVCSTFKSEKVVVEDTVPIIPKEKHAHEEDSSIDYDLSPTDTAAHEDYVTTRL

HEK293 [18] = experiment: cells; type: functional, cell-based; details: Homo sapiens
HEK293 [19] = experiment: cells; type: functional, cell-based; details: Homo sapiens; remark: listed apart in the source
[20] = biological target: T3, Heat shock factor protein 1 (Mus musculus, UniProt P38532); experiment: HSF1 potentiators in luciferase reporter cells, confirmation, cell-based, NIH3T3, luminescence, dose retest (AID 435004); type: functional;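 also: stress induced by proteasome inhibitor MG132 added 30 min after compound; luciferase reporter driven by HSF1 response element in NIH3T3 cells; actives raise luminescence as potentiators of the MG132 stress response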
T3 sequence (P38532 whole entry): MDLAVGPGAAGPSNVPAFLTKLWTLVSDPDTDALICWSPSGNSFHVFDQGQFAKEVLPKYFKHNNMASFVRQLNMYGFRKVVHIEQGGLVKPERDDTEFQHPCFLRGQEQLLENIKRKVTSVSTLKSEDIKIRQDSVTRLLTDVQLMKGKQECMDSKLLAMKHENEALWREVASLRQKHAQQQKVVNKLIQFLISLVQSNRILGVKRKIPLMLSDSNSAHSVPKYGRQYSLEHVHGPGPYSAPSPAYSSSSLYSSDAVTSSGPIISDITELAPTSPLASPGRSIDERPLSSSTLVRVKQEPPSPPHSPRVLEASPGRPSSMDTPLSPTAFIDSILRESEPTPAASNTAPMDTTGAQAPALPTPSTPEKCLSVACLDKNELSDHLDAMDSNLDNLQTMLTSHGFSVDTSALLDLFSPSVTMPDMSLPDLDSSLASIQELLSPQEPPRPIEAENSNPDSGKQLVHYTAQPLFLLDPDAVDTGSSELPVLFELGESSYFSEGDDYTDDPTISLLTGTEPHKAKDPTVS

HEK293 [21] = experiment: NOD1 signaling inhibitors, primary screen, cell-based, luminescence, uHTS (AID 1578); type: functional; details: Homo sapiens
HEK293 [22] = experiment: NOD2 signaling inhibitors in MDP-stimulated cells, cell-based, uHTS, luminescence (AID 2001); type: functional; details: Homo sapiens
Nonstructural protein 1 = Nonstructural protein 1 (Influenza A virus, UniProt Q194T2); type: functional, Influenza A virus (A/California/07/2009(H1N1))
Chain of Nonstructural protein 1 (Q194T2 whole entry): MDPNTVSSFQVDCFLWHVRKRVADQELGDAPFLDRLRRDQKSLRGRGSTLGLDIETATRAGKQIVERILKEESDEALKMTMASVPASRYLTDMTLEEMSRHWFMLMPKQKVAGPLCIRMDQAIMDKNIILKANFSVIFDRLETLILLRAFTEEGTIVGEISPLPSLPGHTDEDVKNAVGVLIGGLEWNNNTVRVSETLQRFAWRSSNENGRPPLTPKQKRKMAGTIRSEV

[23] = biological target: G-protein coupled receptor 55 (Homo sapiens, UniProt Q9Y2T6); experiment: GPR55 antagonists blocking LPI-driven arrestin recruitment, primary screen, imaging, U2OS, beta-arrestin-GFP, LPI agonist (AID 2013); type: functional;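 also: antagonist potency measured as reduced agonist-driven arrestin aggregation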
[24] = inhibitors of firefly luciferase expression or activity, dose response, H4 neuroglioma cells, luminescence (AID 1990); type: functional, cell-based
[25] = biological target: Photoreceptor-specific nuclear receptor (Homo sapiens, UniProt Q9Y5X4); type: functional, cell-based;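 also: CHO-S cells with Gal4-NCOR and VP16-NR2E3 two-hybrid luciferase reporter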
Jurkat = experiment: antigen receptor-induced NF-kB inhibitors, dose response, Jurkat, luciferase reporter, luminescence, B- and T-cell (AID 489004); type: functional, cell-based; details: Homo sapiens;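 also: NF-kB luciferase reporter Jurkat cells stimulated with PMA plus ionomycin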
Beta-galactosidase = Beta-galactosidase (Escherichia coli, UniProt Q8VNN2); experiment: PubChem AID 485352; type: functional
[26] = Luminescence Cell-Based Dose Response HTS to Identify Inhibitors of 5'UTR Stem-Loop Driven Prion Protein mRNA Translation in H4 Neuroglioblastoma Cells. [Related pubchem assays: 1827 (Project Summary), 1813 (Primary HTS)]; type: functional
[27] = biological target: E3 ubiquitin-protein ligase Mdm2 (Homo sapiens, UniProt Q00987); experiment: enhancers of MDM2-luciferase reporter signal, concentration-effect titration, project on inhibitors of MDM2 ubiquitin ligase, cellular assay, luminescent readout, 384-well plate format (AID 1394); type: functional;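 also: MDM2 E3 inhibitors raise luminescence so EC50 is for signal enhancement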
Chain of E3 ubiquitin-protein ligase Mdm2 (Q00987 whole entry): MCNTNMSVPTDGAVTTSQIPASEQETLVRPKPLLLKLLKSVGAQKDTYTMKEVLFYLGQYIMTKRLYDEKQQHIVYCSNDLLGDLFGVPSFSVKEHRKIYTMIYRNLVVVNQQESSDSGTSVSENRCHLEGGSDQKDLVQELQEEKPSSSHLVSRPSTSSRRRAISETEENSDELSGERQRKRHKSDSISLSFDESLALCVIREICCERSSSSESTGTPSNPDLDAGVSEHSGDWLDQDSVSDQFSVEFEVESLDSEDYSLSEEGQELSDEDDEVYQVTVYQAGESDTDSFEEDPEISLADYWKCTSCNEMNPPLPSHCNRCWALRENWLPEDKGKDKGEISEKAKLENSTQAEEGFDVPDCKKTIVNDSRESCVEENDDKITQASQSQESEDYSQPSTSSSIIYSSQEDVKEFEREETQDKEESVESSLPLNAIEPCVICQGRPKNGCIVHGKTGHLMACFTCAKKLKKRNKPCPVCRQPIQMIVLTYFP

INS1 = experiment: beta cell apoptosis inhibitors, cytokine rescue, dose response, luminescence, retest (AID 449756); type: functional, cell-based; details: Rattus norvegicus;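 also: cell death triggered by IL-1 beta plus TNF-alpha plus IFN-gamma mixture; protective hits raise ATP signal compared with cytokine alone wells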
[28] = cytotoxicity in HEK-293T NF-kB-Luc cells, dose response, cytotoxicity control for B/T-cell NF-kB inhibitor project, cell-based, uHTS hits (AID 489019); type: functional;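 also: IC50 reflects cytotoxicity as loss of cell viability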
[29] = biological target: T4, Type-1 angiotensin II receptor (Homo sapiens, UniProt P30556); experiment: AT1 receptor antagonists, dose response, selectivity assay for APJ receptor antagonist project, cell-based, uHTS hits (AID 463214); type: functional;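 also: antagonist potency against angiotensin II stimulated AT1 response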
T4 sequence (P30556 whole entry): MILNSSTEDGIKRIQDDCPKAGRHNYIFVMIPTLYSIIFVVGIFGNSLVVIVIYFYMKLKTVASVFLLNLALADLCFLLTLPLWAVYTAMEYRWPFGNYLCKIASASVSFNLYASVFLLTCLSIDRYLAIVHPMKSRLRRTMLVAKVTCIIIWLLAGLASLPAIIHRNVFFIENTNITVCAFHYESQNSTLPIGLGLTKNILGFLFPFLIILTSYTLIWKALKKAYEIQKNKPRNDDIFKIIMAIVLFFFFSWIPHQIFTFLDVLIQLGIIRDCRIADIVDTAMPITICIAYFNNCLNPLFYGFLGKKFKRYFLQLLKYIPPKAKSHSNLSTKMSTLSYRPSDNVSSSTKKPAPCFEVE

COc1ccc(Nc2cc(C)nc(NCc3ccccc3)n2)cc1
AC50 [1]: 0.565 µM (active)
EC50 [2]: 0.12 µM (active)
AC50 [3]: 26.7 µM (active)
AC50 [4]: 3.16 µM (active)
IC50 [5]: 0.699 µM (active)
AC50 [6]: 22 µM (active)
EC50 [7]: > 60 µM (not active)
AC50 [8]: 8.45 µM (active)
AC50 [9]: 3.9 µM (active)
AC50 [10]: 21.2 µM (active)
IC50 [11]: 1.14 µM (active)

CCOC(=O)c1sc2nc(C3CC3)cc(-c3ccc(F)cc3)c2c1N
AC50 (CAAX prenyl protease 1): 3.7 µM (active)

COc1ccccc1C(=O)NC(=O)COC(=O)c1cc(-c2ccco2)nc2ccccc12
IC50 (SUMO E1/E2): 2.06 µM (active)
IC50 [12]: 15.4 µM (active)
IC50 [13]: 3.41 µM (active)

COC(=O)C(Cc1cccc(C)n1)(c1ccccc1)c1ccccc1
EC50 [14]: > 92.5 µM (inactive)
EC50 (Mu-type opioid receptor): > 92.5 µM (inactive)
EC50 [15]: > 92.5 µM (inactive)

Cc1cc(NC(=O)Cn2c(=O)n(Cc3ccccc3)c(=O)c3ccccc32)no1
EC50 [16]: 35.9 µM (active)
IC50 (SUMO-activating enzyme): 67.7 µM (active)

Cc1cccc(NC(S)=NCC(c2cccnc2)N(C)C)c1C (stereo not drawn)
EC50 [14]: 17.8 µM (inactive)
EC50 [17]: 0.0067 µM (active)
EC50 (Mu-type opioid receptor): 2.75 µM (active)
EC50 [15]: > 92.5 µM (inactive)

Cc1cc(C(=O)N/N=C/c2ccc([N+](=O)[O-])s2)c2ccccc2n1
IC50 (HEK293 [18]): > 20 µM (inactive)
EC50 [2]: 0.623 µM (active)
IC50 (HEK293 [19]): 15.8 µM (active)
EC50 [20]: 13 µM (active)
EC50 [7]: > 30 µM (not active)
EC50 (HEK293 [21]): 7.6 µM (active)

CN1C=C/C(=C/c2ccc3ccccc3[n+]2C)c2ccccc21
IC50 (HEK293 [18]): 18 µM (active)
IC50 (HEK293 [22]): 7.8 µM (active)
IC50 (HEK293 [19]): 8.56 µM (active)
EC50 (HEK293 [21]): 5.15 µM (active)
IC50 (Nonstructural protein 1): 16.4 µM (active)

C=C1C(=O)O[C@@H]2C[C@@H](C)[C@@H]3C=CC(=O)[C@@]3(C)[C@@H](O)[C@H]12 [HELENALIN]
IC50 [23]: 2.64 µM (active)
EC50 [24]: 4.62 µM (inconclusive)
AC50 [1]: 1.53 µM (active)
IC50 [25]: 1.92 µM (active)
AC50 [6]: 4.35 µM (active)
IC50 (Jurkat): 1.02 µM (active)
AC50 [9]: 0.825 µM (active)
EC50 (Beta-galactosidase): > 40 µM (inactive)
EC50 [26]: 8.32 µM (active)
EC50 [27]: 0.42 µM (active)
AC50 (INS1): 2.27 µM (active)
IC50 [28]: > 80 µM (inactive)
IC50 [29]: 18.6 µM (active)

Source: ChEMBL document CHEMBL1201862, “PubChem BioAssay data set” (2004)
